The target in assay [1] is purified human Factor XIa (Homo sapiens (Human), UniProt P03951). Briefly: biochemical. Format: biochemical.
Assay [2] deals with purified human plasma kallikrein (Homo sapiens (Human), UniProt P03952). Briefly: biochemical. Format: biochemical.
[3] abbreviates: TFA salt, read-out: Factor XIa Ki.
The mark [4] stands for this setting: TFA salt, read-out: Plasma Kallikrein Ki.

Each structure is given as a SMILES string. pKi: −log10 of the molar value. Where a name gives a salt, the structure may show the parent alone. Read-outs that look alike come from different tables or passages of the source. A value given as a limit tells only on which side of the number the result lay.

For orientation: pKi means the Ki on a negative log10 scale, so that one unit is a factor of ten.

Sequence of purified human Factor XIa (P03951 whole entry, looked up): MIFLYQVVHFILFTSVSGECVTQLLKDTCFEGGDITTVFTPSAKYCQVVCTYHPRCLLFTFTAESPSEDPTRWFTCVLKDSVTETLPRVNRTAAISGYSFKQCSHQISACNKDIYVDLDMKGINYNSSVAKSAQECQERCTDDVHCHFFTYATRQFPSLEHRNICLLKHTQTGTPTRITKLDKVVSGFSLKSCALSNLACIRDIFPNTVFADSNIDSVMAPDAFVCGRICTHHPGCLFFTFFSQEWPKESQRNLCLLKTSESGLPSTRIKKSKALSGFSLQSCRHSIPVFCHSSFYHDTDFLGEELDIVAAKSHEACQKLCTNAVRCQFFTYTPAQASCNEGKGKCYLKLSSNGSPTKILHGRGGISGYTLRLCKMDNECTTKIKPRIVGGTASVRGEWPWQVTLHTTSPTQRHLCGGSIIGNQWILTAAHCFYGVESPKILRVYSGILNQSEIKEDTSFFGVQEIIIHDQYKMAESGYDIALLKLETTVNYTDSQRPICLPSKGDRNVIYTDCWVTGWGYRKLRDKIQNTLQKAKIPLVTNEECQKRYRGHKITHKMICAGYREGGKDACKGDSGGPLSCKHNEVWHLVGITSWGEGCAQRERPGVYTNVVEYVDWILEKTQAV
Sequence of purified human Factor XIa (P03951 whole entry partner, looked up): as the sequence (P03951 whole entry, looked up) above
Sequence of purified human plasma kallikrein (P03952 whole entry, looked up): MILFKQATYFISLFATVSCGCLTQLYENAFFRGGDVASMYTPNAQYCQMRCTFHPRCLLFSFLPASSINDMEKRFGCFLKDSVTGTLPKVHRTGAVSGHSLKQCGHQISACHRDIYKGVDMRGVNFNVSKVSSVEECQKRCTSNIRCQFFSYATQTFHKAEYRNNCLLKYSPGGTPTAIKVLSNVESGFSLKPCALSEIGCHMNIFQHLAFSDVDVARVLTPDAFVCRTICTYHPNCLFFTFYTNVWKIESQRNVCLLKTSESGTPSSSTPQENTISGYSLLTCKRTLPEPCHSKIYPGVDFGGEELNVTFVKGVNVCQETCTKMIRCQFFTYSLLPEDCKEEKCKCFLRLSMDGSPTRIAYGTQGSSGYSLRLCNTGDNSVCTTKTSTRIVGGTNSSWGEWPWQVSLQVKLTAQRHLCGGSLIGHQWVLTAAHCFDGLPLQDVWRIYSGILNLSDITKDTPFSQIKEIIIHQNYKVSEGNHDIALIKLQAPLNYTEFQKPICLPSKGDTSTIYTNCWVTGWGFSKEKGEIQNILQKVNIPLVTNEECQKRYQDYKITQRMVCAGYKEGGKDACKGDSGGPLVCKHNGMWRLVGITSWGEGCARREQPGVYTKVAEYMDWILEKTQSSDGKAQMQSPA
Sequence of purified human plasma kallikrein (P03952 whole entry partner, looked up): as the sequence (P03952 whole entry, looked up) above

As for `COC(=O)Nc1ccc2c(c1)NC(=O)C(C)(O)CCC[C@H](N1CCC(c3c(F)ccc(Cl)c3F)=CC1=O)c1cc-2ccn1` (single isomer, unassigned) [Example 124, TFA salt], the results for the pKi in assay [1] and in assay [2] (Plasma Kallikrein Ki) were 6.46 and 6.32, respectively.

Turning to `COC(=O)Nc1ccc2c(c1)NC(=O)[C@H](C)CCC[C@H](N1CCC(C3CCCC(C)C3)=CC1=O)c1cc-2ccn1` (single isomer, unassigned) [Example 153, TFA salt], the pKi was 7.70 in assay [1] (setting [3]) and 7.67 in assay [2] (setting [4]).

Take `COC(=O)Nc1ccc2c(c1)NC(=O)[C@H](C)CCC[C@H](N1CCC(C3CCCC(C)C3)=CC1=O)c1cc-2ccn1` (single isomer, unassigned) [Example 218, TFA salt]: the pKi was 7.42 in assay [1] (setting [3]) and 6.42 in assay [2] (setting [4]).

On to `COC(=O)Nc1ccc2c(c1)NC(=O)[C@H](C)CCC[C@H](N1CCC(C3CCCC(C)C3)=CC1=O)c1cc-2ccn1` (single isomer, unassigned) [Example 225, TFA salt], for which the values for the pKi in assay [1] (setting [3]) and in assay [2] (setting [4]) were 7.58 and 7.02, respectively.

For `COC(=O)Nc1ccc2c(c1)NC(=O)[C@H](C)CCC[C@H](N1CCC(C3CCCC(C)C3)=CC1=O)c1cc-2ccn1` (single isomer, unassigned) [Example 226, TFA salt], the negative logarithm of the Ki (pKi) in assay [1] (setting [3]) was 7.61; in assay [2] (setting [4]) it was 6.78.

As for `COC(=O)Nc1ccc2c(c1)C(=O)N[C@H](C)CCC[C@H](N1CCC(c3c(F)ccc(Cl)c3F)=CC1=O)c1cc-2ccn1` (single isomer, unassigned; diastereomer b) [Example 194, TFA salt], the results for the negative-log Ki (pKi) in assay [1] and in assay [2] (Plasma Kallikrein Ki) were under 6.38 and 6.51, respectively.

For `COC(=O)Nc1ccc2c(c1)NC(=O)[C@H](C)CCC[C@H](N1CC(C)C(c3c(F)ccc(Cl)c3F)=CC1=O)c1cc-2ccn1` (single isomer, unassigned; isomer 1) [Example 177], the negative-log Ki (pKi) in assay [1] is 9.10; in assay [2] (Plasma Kallikrein Ki), 8.40.

For the molecule `COC(=O)Nc1ccc2c(c1)NC(=O)[C@H](C)CCC[C@H](N1CCC(c3c(OC)ccc(Cl)c3F)=CC1=O)c1cc-2ccn1` [Example 1, Methyl N-[(10R,14S)-14-[4-(3-chloro-2-fluoro-6-methoxyphenyl)-6-oxo-1,2,3,6-tetrahydropyridin-1-yl]-10-methyl-9-oxo-8,16-diazatricyclo[13.3.1.0^2,7]nonadeca-1(19),2,4,6,15,17-hexaen-5-yl]carbamate, TFA salt], the negative logarithm of the Ki (pKi) was 9.06 in assay [1] (read-out: Factor XIa Ki) and 8.00 in assay [2] (read-out: Plasma Kallikrein Ki).

`COC(=O)Nc1ccc2c(c1)NC(=O)[C@H](C)CCC[C@H](N1CCC(c3c(C)ccc(Cl)c3F)=CC1=O)c1cc-2ccn1` [Example 2, Methyl N-[(10R,14S)-14-[4-(3-chloro-2-fluoro-6-methylphenyl)-6-oxo-1,2,3,6-tetrahydropyridin-1-yl]-10-methyl-9-oxo-8,16-diazatricyclo[13.3.1.0^2,7]nonadeca-1(19),2,4,6,15,17-hexaen-5-yl]carbamate, TFA salt]: the figures for the pKi in assay [1] (read-out: Factor XIa Ki) and in assay [2] (read-out: Plasma Kallikrein Ki) were 9.64 and 8.30, respectively.

In the case of `COC(=O)Nc1ccc2c(c1)NC(=O)[C@H](C)CCC[C@H](N1CCC(c3c(C#N)ccc(Cl)c3F)=CC1=O)c1cc-2ccn1` [Example 3, Methyl N-[(10R,14S)-14-[4-(3-chloro-6-cyano-2-fluorophenyl)-6-oxo-1,2,3,6-tetrahydropyridin-1-yl]-10-methyl-9-oxo-8,16-diazatricyclo[13.3.1.0^2,7]nonadeca-1(19),2,4,6,15,17-hexaen-5-yl]carbamate, TFA salt], the figures for the pKi in assay [1] (read-out: Factor XIa Ki) and in assay [2] (read-out: Plasma Kallikrein Ki) were 10.52 and 9.00, respectively.

Consider `COC(=O)Nc1ccc2c(c1)NC(=O)[C@H](C)CCC[C@H](N1CCC(c3c(F)cccc3C#N)=CC1=O)c1cc-2ccn1` [Example 4, Methyl N-[(10R,14S)-14-[4-(2-cyano-6-fluorophenyl)-6-oxo-1,2,3,6-tetrahydropyridin-1-yl]-10-methyl-9-oxo-8,16-diazatricyclo[13.3.1.0^2,7]nonadeca-1(19),2,4,6,15,17-hexaen-5-yl]carbamate, TFA salt], for which the pKi in assay [1] (read-out: Factor XIa Ki) is 8.58; in assay [2] (read-out: Plasma Kallikrein Ki) it was 9.00.

Take `COC(=O)Nc1ccc2c(c1)NC(=O)[C@H](C)CCC[C@H](N1CCC(c3nccc(Cl)c3F)=CC1=O)c1cc-2cc(OC)n1` [Example 5, Methyl N-[(10R,14S)-14-[4-(4-chloro-3-fluoropyridin-2-yl)-6-oxo-1,2,3,6-tetrahydropyridin-1-yl]-17-methoxy-10-methyl-9-oxo-8,16-diazatricyclo[13.3.1.0^2,7]nonadeca-1(18),2,4,6,15(19),16-hexaen-5-yl]carbamate, TFA salt]: the pKi is 8.70 in assay [1] (read-out: Factor XIa Ki) and 8.52 in assay [2] (read-out: Plasma Kallikrein Ki).

Turning to `COC(=O)Nc1ccc2c(c1)NC(=O)[C@H](C)CCC[C@H](N1CCC(c3nccc(Cl)c3OC)=CC1=O)c1cc-2cc(OC)n1` [Example 6, Methyl N-[(10R,14S)-14-[4-(4-chloro-3-methoxypyridin-2-yl)-6-oxo-1,2,3,6-tetrahydropyridin-1-yl]-17-methoxy-10-methyl-9-oxo-8,16-diazatricyclo[13.3.1.0^2,7]nonadeca-1(18),2,4,6,15(19),16-hexaen-5-yl]carbamate, TFA salt], the pKi was 6.80 in assay [1] (read-out: Factor XIa Ki) and 6.52 in assay [2] (read-out: Plasma Kallikrein Ki).

For the molecule `COC(=O)Nc1ccc2c(c1)NC(=O)[C@H](C)CCC[C@H](N1CCC(c3c(C#N)ccc(C#N)c3F)=CC1=O)c1cc-2cc(OC)n1` [Example 7, Methyl N-[(10R,14S)-14-[4-(3,6-dicyano-2-fluorophenyl)-6-oxo-1,2,3,6-tetrahydropyridin-1-yl]-17-methoxy-10-methyl-9-oxo-8,16-diazatricyclo[13.3.1.0^2,7]nonadeca-1(18),2,4,6,15(19),16-hexaen-5-yl]carbamate], the pKi is 8.27 in assay [1] (read-out: Factor XIa Ki) and 8.00 in assay [2] (read-out: Plasma Kallikrein Ki).

Turning to `COC(=O)Nc1ccc2c(c1)NC(=O)[C@H](C)CCC[C@H](N1CCC(c3c(C#N)ccc4c(N)n[nH]c34)=CC1=O)c1cc-2cc(OC)n1` [Example 8, Methyl N-[(10R,14S)-14-[4-(3-amino-6-cyano-1H-indazol-7-yl)-6-oxo-1,2,3,6-tetrahydropyridin-1-yl]-17-methoxy-10-methyl-9-oxo-8,16-diazatricyclo[13.3.1.0^2,7]nonadeca-1(18),2,4,6,15(19),16-hexaen-5-yl]carbamate, TFA salt], the figures for the pKi in assay [1] (read-out: Factor XIa Ki) and in assay [2] (read-out: Plasma Kallikrein Ki) were under 6.34 and 6.76, respectively.

As to `COC(=O)Nc1ccc2c(c1)NC(=O)[C@H](C)CCC[C@H](N1CCC(c3c(C#N)ccc4c(N)noc34)=CC1=O)c1cc-2cc(OC)n1` [Example 9, Methyl N-[(10R,14S)-14-[4-(3-amino-6-cyano-1,2-benzoxazol-7-yl)-6-oxo-1,2,3,6-tetrahydropyridin-1-yl]-17-methoxy-10-methyl-9-oxo-8,16-diazatricyclo[13.3.1.0^2,7]nonadeca-1(18),2,4,6,15(19),16-hexaen-5-yl]carbamate, TFA salt], the negative-log Ki (pKi) is 7.48 in assay [1] (read-out: Factor XIa Ki) and 7.34 in assay [2] (read-out: Plasma Kallikrein Ki).

On to `COC(=O)Nc1ccc2c(c1)NC(=O)[C@H](C)CCC[C@H](N1CCC(c3nccc(Cl)c3F)=CC1=O)c1cc-2ccn1` [Example 10, Methyl N-[(10R,14S)-14-[4-(4-chloro-3-fluoropyridin-2-yl)-6-oxo-1,2,3,6-tetrahydropyridin-1-yl]-10-methyl-9-oxo-8,16-diazatricyclo[13.3.1.0^2,7]nonadeca-1(18),2,4,6,15(19),16-hexaen-5-yl]carbamate, TFA salt], for which the pKi in assay [1] (read-out: Factor XIa Ki) was 9.04; in assay [2] (read-out: Plasma Kallikrein Ki), 9.00.

Values taken from patent US9409908B2 (priority 2012, dated 2016).
